Experimental data: ChEMBL document CHEMBL1125394, “Analgesic dipeptide derivatives. 7. 3,7-Diamino-2-hydroxyheptanoic acid (DAHHA) containing dipeptide analogues of the analgesic compound H-Lys-Trp(Nps)-OMe” (J Med Chem, 1992)
Residues, ends and D or L forms follow the SMILES beside them.

Legend:
Aminopeptidase N [1] = biological target: T1, Aminopeptidase N (Rattus norvegicus, UniProt P15684); assay: (§1) Compound was evaluated for its inhibitory potency against purified membrane bound rat brain Aminopeptidase M using [3H]Leu-enkephalin as substrate; type: functional
T1 sequence (P15684 whole entry): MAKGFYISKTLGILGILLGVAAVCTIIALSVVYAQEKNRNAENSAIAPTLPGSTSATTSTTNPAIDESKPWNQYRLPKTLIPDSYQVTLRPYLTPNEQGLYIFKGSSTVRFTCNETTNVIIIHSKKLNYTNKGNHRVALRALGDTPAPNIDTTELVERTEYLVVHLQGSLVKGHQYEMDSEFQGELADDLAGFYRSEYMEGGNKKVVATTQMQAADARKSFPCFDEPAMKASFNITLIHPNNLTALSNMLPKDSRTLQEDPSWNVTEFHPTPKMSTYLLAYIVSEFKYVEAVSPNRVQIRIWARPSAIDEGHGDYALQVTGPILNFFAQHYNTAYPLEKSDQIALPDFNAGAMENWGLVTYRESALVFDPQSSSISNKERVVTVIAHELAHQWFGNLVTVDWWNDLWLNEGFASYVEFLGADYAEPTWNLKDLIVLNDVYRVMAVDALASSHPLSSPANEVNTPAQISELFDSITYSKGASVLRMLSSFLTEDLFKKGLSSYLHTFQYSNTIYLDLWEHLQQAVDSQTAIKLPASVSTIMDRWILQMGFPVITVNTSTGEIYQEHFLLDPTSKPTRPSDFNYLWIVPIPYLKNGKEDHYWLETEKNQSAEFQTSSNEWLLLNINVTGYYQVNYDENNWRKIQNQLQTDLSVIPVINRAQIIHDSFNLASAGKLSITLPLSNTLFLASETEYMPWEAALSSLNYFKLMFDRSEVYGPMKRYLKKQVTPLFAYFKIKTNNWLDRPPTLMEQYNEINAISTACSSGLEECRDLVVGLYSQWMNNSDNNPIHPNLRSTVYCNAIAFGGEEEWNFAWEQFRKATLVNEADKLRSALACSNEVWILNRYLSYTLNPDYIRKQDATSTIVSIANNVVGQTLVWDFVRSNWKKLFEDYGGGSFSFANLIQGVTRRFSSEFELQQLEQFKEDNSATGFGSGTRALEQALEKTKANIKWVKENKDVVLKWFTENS

Mus musculus [2] = species on record: Mus musculus; assay: Analgesic response measured as percentage change in reaction time (dose 5 ug given intracervically) after 30 min in mice; type: functional
Mus musculus [3] = species on record: Mus musculus; assay: Analgesic response measured as percentage change in reaction time (dose 5 ug given intracervically) after 5 min in mice; type: functional
Mus musculus [4] = species on record: Mus musculus; assay: Analgesic response measured as percentage change in reaction time (dose 5 ug given intracervically) after 60 min in mice; type: functional
Aminopeptidase B [5] = biological target: T2, Aminopeptidase B (Rattus norvegicus, UniProt O09175); assay: (§2) Compound was evaluated for its inhibitory potency against purified membrane bound rat brain Aminopeptidase B using L-lysine-beta napthylamide as substrate; type: functional
T2 sequence (O09175 whole entry): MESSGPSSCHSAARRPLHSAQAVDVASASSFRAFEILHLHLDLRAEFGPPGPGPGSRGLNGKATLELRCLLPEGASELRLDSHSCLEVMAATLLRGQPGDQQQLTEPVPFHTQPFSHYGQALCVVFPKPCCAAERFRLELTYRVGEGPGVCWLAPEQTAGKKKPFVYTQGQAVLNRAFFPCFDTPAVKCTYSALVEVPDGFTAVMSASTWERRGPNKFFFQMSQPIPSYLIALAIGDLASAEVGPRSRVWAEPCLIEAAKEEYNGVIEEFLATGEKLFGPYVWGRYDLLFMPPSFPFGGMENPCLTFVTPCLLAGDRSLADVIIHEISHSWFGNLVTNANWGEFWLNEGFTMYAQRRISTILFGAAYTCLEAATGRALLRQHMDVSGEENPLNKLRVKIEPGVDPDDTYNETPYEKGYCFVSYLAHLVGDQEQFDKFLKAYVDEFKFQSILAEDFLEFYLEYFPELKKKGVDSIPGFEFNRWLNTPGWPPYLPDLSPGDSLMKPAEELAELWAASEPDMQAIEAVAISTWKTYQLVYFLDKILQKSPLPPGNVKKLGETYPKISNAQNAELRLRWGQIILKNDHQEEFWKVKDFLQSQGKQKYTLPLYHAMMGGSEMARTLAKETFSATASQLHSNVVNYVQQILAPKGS

Mus musculus [6] = species on record: Mus musculus; assay: Analgesic response measured as percentage change in reaction time (dose given intracervically) after 60 min in mice; type: functional
[7] = (§3) Compound was evaluated for its inhibitory potency against purified membrane bound rat brain APs; type: functional
Aminopeptidase B [8] = biological target: T2, Aminopeptidase B; assay: Compound was evaluated for its inhibitory potency against purified membrane bound rat brain Aminopeptidase B (AP-B) using L-lysine-beta napthylamide as substrate
Aminopeptidase N [9] = biological target: T1, Aminopeptidase N; assay: Compound was evaluated for its inhibitory potency against purified membrane bound rat brain Aminopeptidase M (AP-M) using [3H]Leu-enkephalin as substrate
Mus musculus [10] = species on record: Mus musculus; assay: Analgesic response measured as percentage change in reaction time (dose 1 ug given intracervically) after 30 min in mice; type: functional
Mus musculus [11] = species on record: Mus musculus; assay: Analgesic response measured as percentage change in reaction time (dose 1 ug given intracervically) after 5 min in mice; type: functional
Mus musculus [12] = species on record: Mus musculus; assay: Analgesic response measured as percentage change in reaction time (dose 1 ug given intracervically) after 60 min in mice; type: functional
Aminopeptidase B [13] = biological target: T2, Aminopeptidase B; assay: Inhibitory potency against purified membrane bound rat brain Aminopeptidase B (AP-B) using L-lysine-beta napthylamide as substrate
Aminopeptidase N [14] = biological target: T1, Aminopeptidase N; assay: Inhibitory potency against purified membrane bound rat brain Aminopeptidase M (AP-M) using [3H]Leu-enkephalin as substrate
[15] = as §3; type: tissue-based
Aminopeptidase B [16] = biological target: T2, Aminopeptidase B; assay: as §2
Aminopeptidase N [17] = biological target: T1, Aminopeptidase N; assay: as §1
Mus musculus [18] = species on record: Mus musculus; assay: Analgesic response measured as percentage change in reaction time (dose 25 ug given intracervically) after 30 min in mice; type: functional
Mus musculus [19] = species on record: Mus musculus; assay: Analgesic response measured as percentage change in reaction time (dose 25 ug given intracervically) after 5 min in mice; type: functional
Mus musculus [20] = species on record: Mus musculus; assay: Analgesic response measured as percentage change in reaction time (dose 25 ug given intracervically) after 60 min in mice; type: functional
Mus musculus [21] = species on record: Mus musculus; assay: Analgesic response measured as percentage change in reaction time (dose 100 ug given intracervically) after 30 min in mice; type: functional
Mus musculus [22] = species on record: Mus musculus; assay: Analgesic response measured as percentage change in reaction time (dose 100 ug given intracervically) after 5 min in mice; type: functional
Mus musculus [23] = species on record: Mus musculus; assay: Analgesic response measured as percentage change in reaction time (dose 100 ug given intracervically) after 60 min in mice; type: functional
Mus musculus [24] = species on record: Mus musculus; assay: Analgesic response measured as percentage change in reaction time (dose 0.5 ug given intracervically) after 30 min in mice; type: functional
Mus musculus [25] = species on record: Mus musculus; assay: Analgesic response measured as percentage change in reaction time (dose 0.5 ug given intracervically) after 5 min in mice; type: functional
Mus musculus [26] = species on record: Mus musculus; assay: Analgesic response measured as percentage change in reaction time (dose 0.5 ug given intracervically) after 60 min in mice; type: functional
Aminopeptidase B [27] = biological target: T2, Aminopeptidase B; assay: Inhibitory potency against purified membrane bound rat brain Aminopeptidase B using L-lysine-beta napthylamide as substrate; type: functional
Aminopeptidase N [28] = biological target: T1, Aminopeptidase N; assay: Inhibitory potency against purified membrane bound rat brain Aminopeptidase M using [3H]Leu-enkephalin as substrate; type: functional
Mus musculus [29] = species on record: Mus musculus; assay: Analgesic response measured as percentage change in reaction time ((dose 1 ug given intracervically) after 60 min in mice; type: functional
Mus musculus [30] = species on record: Mus musculus; assay: Analgesic response measured as percentage change in reaction time (dose 10 ug given intracervically) after 30 min in mice; Signs of strong neurotoxicity; type: functional, organism-based
Mus musculus [31] = species on record: Mus musculus; assay: Analgesic response measured as percentage change in reaction time (dose 10 ug given intracervically) after 60 min in mice; Signs of strong neurotoxicity; type: functional, organism-based
Mus musculus [32] = species on record: Mus musculus; assay: Analgesic response measured as percentage change in reaction time (dose 10 ug given intracervically) after 5 min in mice; type: functional

Structure (SMILES)	IC50 (Aminopeptidase N [1])	Change (Mus musculus [2])	Change (Mus musculus [3])	Change (Mus musculus [4])	IC50 (Aminopeptidase B [5])	IC50 (Aminopeptidase B [8])	IC50 (Aminopeptidase N [9])	Change (Mus musculus [10])	Change (Mus musculus [11])	also measured
COC(=O)[C@@H](Cc1c[nH]c2ccccc12)NC(=O)[C@@H](O)[C@@H](N)CCCCN	> 1000 µM	10%	-1%	15%	> 1000 µM					
COC(=O)[C@H](Cc1c[nH]c2ccccc12)NC(=O)[C@@H](O)[C@H](N)CCCCN.Cl.Cl	10.2 µM	17%	<60%		> 1000 µM					Change (Mus musculus [6]): 14%; IC50 [7]: 0.21 µM
COC(=O)[C@@H](Cc1c(Sc2ccccc2[N+](=O)[O-])[nH]c2ccccc12)NC(=O)[C@H](O)[C@@H](N)CCCCN		75%	59%	55%		982 µM	225 µM	21%	19%	Change (Mus musculus [12]): -1%
COC(=O)[C@H](Cc1c(Sc2ccccc2[N+](=O)[O-])[nH]c2ccccc12)NC(=O)C(O)[C@@H](N)CCCCN (some centres undefined)		64%	75%	43%				15%	25%	IC50 (Aminopeptidase B [13]): 583 µM; IC50 (Aminopeptidase N [14]): 852 µM; Change (Mus musculus [12]): -8%
COC(=O)[C@H](CC(C)C)NC(=O)[C@@H](O)[C@@H](N)CCCCN.COC(=O)[C@H](CC(C)C)NC(=O)[C@H](O)[C@@H](N)CCCCN		10%	-1%	15%		500 µM	> 1000 µM			
COC(=O)[C@@H](Cc1c[nH]c2ccccc12)NC(=O)[C@H](O)[C@@H](N)CCCCN	> 1000 µM	-1%	22%	2%	> 1000 µM					
COC(=O)[C@@H](Cc1c(Sc2ccccc2[N+](=O)[O-])[nH]c2ccccc12)NC(=O)C(O)[C@H](N)CCCCN (some centres undefined)		56%	80%	37%		486 µM	91.2 µM	13%	19%	Change (Mus musculus [12]): -2%
CC(C)C[C@H](NC(=O)[C@@H](O)[C@H](N)Cc1ccccc1)C(=O)O [UBENIMEX]										IC50 [15]: 0.3 µM; IC50 (Aminopeptidase B [16]): 6 µM; IC50 (Aminopeptidase N [17]): 19.4 µM; Change (Mus musculus [18]): 3%; Change (Mus musculus [19]): 26%; Change (Mus musculus [20]): -3%; Change (Mus musculus [21]): 41%; Change (Mus musculus [22]): 11%; Change (Mus musculus [23]): 59%
COC(=O)[C@H](Cc1c[nH]c2ccccc12)NC(=O)[C@H](O)[C@H](N)CCCCN	502 µM				> 1000 µM					IC50 [7]: 45.5 µM
COC(=O)[C@H](CC(C)C)NC(=O)[C@@H](O)[C@H](N)CCCCN		21%	<62%	23%						IC50 (Aminopeptidase B [16]): 481 µM; IC50 (Aminopeptidase N [17]): 201 µM
NCCCC[C@H](N)C(=O)N[C@@H](Cc1c[nH]c2ccccc12)C(=O)O (H-Lys-Trp-OH)						> 1000 µM	> 1000 µM			
COC(=O)[C@H](Cc1c[nH]c2ccccc12)NC(=O)[C@@H](O)[C@@H](N)CCCCN.COC(=O)[C@H](Cc1c[nH]c2ccccc12)NC(=O)[C@H](O)[C@@H](N)CCCCN	> 1000 µM	19%	26%	-4%	500 µM					
COC(=O)[C@H](Cc1c(Sc2ccccc2[N+](=O)[O-])[nH]c2ccccc12)NC(=O)[C@@H](N)CCCCN	261 µM				400 µM			<60%	<130%	Change (Mus musculus [12]): 35%; Change (Mus musculus [24]): <40%; Change (Mus musculus [25]): <80%; Change (Mus musculus [26]): 20%; IC50 [7]: 18 µM
COC(=O)[C@@H](Cc1c[nH]c2ccccc12)NC(=O)[C@@H](O)[C@H](N)CCCCN.COC(=O)[C@@H](Cc1c[nH]c2ccccc12)NC(=O)[C@H](O)[C@H](N)CCCCN		1%	10%	5%						IC50 (Aminopeptidase B [27]): > 1000 µM; IC50 (Aminopeptidase N [28]): 826 µM
COC(=O)[C@H](Cc1c(Sc2ccccc2[N+](=O)[O-])[nH]c2ccccc12)NC(=O)[C@@H](O)[C@H](N)CCCCN		80%	146%	74%		101 µM	7 µM	63%	124%	Change (Mus musculus [29]): 47%; Change (Mus musculus [30]): Signs of strong neurotoxicity; Change (Mus musculus [31]): Signs of strong neurotoxicity; Change (Mus musculus [32]): 243%
